According to US10881611B2, “Extracellular vesicles derived from osteoblastic lineage cells for therapeutic and diagnostic use” (Fondazione Città Della Speranza—Onlus, priority 2015, dated 2021):

Columns and labels:
mature osteoclasts = experiment: Mature osteoclasts treated for 48 hours, TRAcP colouring; assay type: cell-based, mouse
From the text: Primary mouse osteoclasts are obtained by medullar macrophages differentiation isolated from CD1 long bones of age comprised within 7-10 days. The litter is kept and maintained according to the legal requirements, under the supervision of a veterinary responsible. When experimentally needed, the animals are sacrificed according to the laws and the long bones are explanted and cleaned from soft tissues. The bones are then submitted to mechanical disruption in order to free the bone marrow. The cells obtained are diluted in PBS and stratified 1:1 on Histopaque (Sigma-Aldrich), and centrifuged for 30′ at 450 g. The formed buffy coat is collected and washed with PBS. […] The osteoclastic phenotype is routinely assessed by biochemical assay to tartarate resistant acidic phosphatase positivity on a cell aliquot fixed in PFA/PBS (4% v/v). […]
The sensitivity of mature osteoclasts to the antitumor medicament doxorubicin has been evaluated by treating the cells with different doxorubicin concentrations (0.1-0.2-0.5-1-2-4 μM) and carrying out TRAcP colouring after fixing. […]
The sensitivity of mature osteoclasts to the medicament zolendronate has been assessed by treating the cells with different zolendronate concentrations (10^−8, 5×10^−8, 10^−7, 5×10^−7, 10^−6, 5×10^−6, 10^−5, 5×10^−5, 10^−4 M) and carrying out TRAcP colouring after fixing. […]

[1] = test system: human osteosarcoma cell lines; experiment: Cell viability assay (MTT) of human osteosarcoma cell lines; assay type: cell-based
Experimental: Osteosarcoma cell lines sensitivity to anti-tumour drug Doxorubicin was evaluated by treating the cells with different Doxorubicin concentrations and carrying out cell viability assay with MTT at different times.
RANKL+ O-EVs were incubated with Doxorubicin (300 mg/ml) in vitro, then subjected to FACS. RANKL+ O-EV-associated doxorubicin confers red fluorescence to the nanoparticles, enabling FACS isolation thereof (FIG. 11).
Human osteosarcoma cell lines were treated with free Doxorubicin (235 ng, corresponding to a concentration of 1 micromole/litre in the medium) or with RANKL+ O-EV-associated Doxorubicin (100,000 FACS-isolated nanoparticles, containing 3.2 ng of Doxorubicin, corresponding to a concentration of 10 nanomole/litre in the medium). […] However, the treatment with anti-tumour drug-loaded RANKL+ O-EVs allowed to obtain this effect with a Doxorubicin dose 100-fold lower than the free drug (Table 1 below).

primary osteoblasts = experiment: FACS evaluation of the RANKL-positive O-EV fraction released by osteoblasts under parathyroid hormone stimulation; assay type: cell-based, murine; details: osteoblasts subjected to parathyroid hormone stimulation (10^−8 M human recombinant), p=0.037; without stimulation 53.06+3.47%
Experimental: Murine osteoblasts, obtained as previously described, are plated in 150 cm^2 culture flasks and grown in DMEM culture medium containing glutamine (5 mM), penicillin (1 mg/ml), streptomycin (2 mg/ml) and American fetal bovine serum (10% v/v) (FBS), and kept in incubator under 5% CO2. Upon reaching 70% confluence, cells were abundantly washed with PBS (3 times) to remove serum residues, and kept 24 hours in glutamine (5 mM)/penicillin (1 mg/ml), streptomycin (2 mg/ml) DMEM medium. […]
At the end of the procedure, the pellet obtained is resuspended in […] PBS and incubated with 10 microM CMFDA, at 37° C. for 30 min. The pellet is then brought to maximum volume with PBS in ultra-centrifuge tube, centrifuged at 30,000 RPM for 70 minutes at 4° C., and evaluated for quantity and quality by cytofluorimetric analysis. […]
FACScanto II (BD Biosciences) was resorted to for cytofluorimetric analysis. […] Moreover, the prescribed fluorescence channel compensations are carried out. […]
For evaluation of RANKL expression, CMFDA positive RANKL+ O-EV pellet is incubated for 30 min with mouse anti-RANKL antibody conjugated with Phycoerythrin (PE) (1:100) in PBS/BSA (1%). RANKL+ O-EVs are then FACS analysed and CMFDA/PE double-positive fraction is isolated for further evaluations. […]

[2] = human osteosarcoma cell lines, Table 1

COc1cccc2c1C(=O)c1c(O)c3c(c(O)c1C2=O)C[C@@](O)(C(=O)CO)C[C@@H]3O[C@H]1C[C@H](N)[C@H](O)[C@H](C)O1 [Doxorubicin]
doxorubicin concentration above which toxicity on mature osteoclasts shows (mature osteoclasts; 0.1-4 μM tested): higher than 0.2 micromolar
Doxorubicin concentration at which toxicity on tumour cells manifests ([1]; MTT at different times, osteosarcoma cell lines): > 1 µmol/L
death of the neoplastic cells ([1]; free Doxorubicin 235 ng, 1 micromole/litre in the medium): about 80%
Doxorubicin amount giving death of about 80% of the neoplastic cells [1, 2]: 235 ng
Doxorubicin concentration in the medium giving death of about 80% of the neoplastic cells [1, 2]: 1 µM

O=P(O)(O)C(O)(Cn1ccnc1)P(=O)(O)O [zolendronate]
zolendronate concentration above which toxicity on mature osteoclasts is shown (mature osteoclasts; 10^−8 to 10^−4 M tested): higher than 10^−7 M

B1: parathyroid hormone: human recombinant parathyroid hormone used at 10^−8 M to stimulate osteoblasts (protein, UniProt P01270 32-115, looked up)
Parathyroid hormone: SVSEIQLMHNLGKHLNSMERVEWLRKKLQDVHNFVALGAPLAPRDAGSQRPRKKEDNVLVESHEKSLGEADKADVNVLTKAKSQ
modifications: Parathyroid hormone
notes: human recombinant parathyroid hormone used at 10^−8 M to stimulate osteoblasts
RANKL-positive O-EV subpopulation (primary osteoblasts): 63.6±4.20%
